Data reported in patent publication US5620676A, “Biologically active ATP analogs” (priority 1995, dated 1997).
Entries after “also recorded” stand apart in the source; their conditions may differ.

Assays:
[1] = target: T1, P2X receptor (urinary bladder) (Cavia porcellus, UniProt A0A286XVA9); test: Contraction of guinea pig isolated urinary bladder detrussor muscle; details: for activity/potency in words, bladder: guinea pig urinary bladder
T1 construct: guinea pig isolated urinary bladder detrussor muscle; from tissue; host or cells: guinea pig isolated urinary bladder detrusor muscle
Excerpt: (§1) Muscular relaxation/contraction: Relaxant responses mediated via P2Y receptors were examined in guinea pig taenia coli, rabbit aorta, and rabbit mesenteric artery, as described by Hoyle et al. (Br. J. Pharmacol., 107, 367-374 (1992a)), Burnstock et al., (Br. J. Pharmacol., 90, 383-391 (1987a)), and Rubino et al., (Eur. J. Pharmacol., 212, 237-240 (1992)). Contractile responses mediated via P2X receptors were examined in the guinea pig urinary bladder and vas deferens, and rabbit saphenous artery, also using standard methods (see Hoyle et al., supra., 1992; Hoyle et al., Br. J. Pharmacol., 99, 617-621 (1990); and Burnstock et al., Br. J. Pharmacol., 90, 111-120 (1987b)).
(§2) In FIG. 14, the x-axis is also marked in units of the negative log of the molar concentration of applied putative P2Y receptor agonists and the y-axis is marked in units of the percentage relaxation of the 1 μM noradrenalin-induced contraction of rabbit aorta endothelium. In FIGS. 15-16, the x-axis is marked in units of the negative log of the molar concentration of applied putative p^2X receptor agonists and the y-axis is marked in units of the percentage contraction relative to a standard dose of KCl (i.e., 60 mM), as assessed in guinea pig isolated urinary bladder detrussor muscle (FIG. 15) and guinea pig isolated vas deferens (FIG. 16).

P2X and P2Y receptors = test: Overall activity in the seven P2X and P2Y preparations
[2] = test system: P2Y receptor (aorta endothelium); test: Relaxation of noradrenalin-contracted rabbit aorta; details: rabbit aorta; log molar units
Excerpt: as §1, §2

[3] = target: T2, P2Y receptor (taenia coli) (Cavia porcellus, UniProt P59902); test: Relaxation of carbachol-contracted guinea pig taenia coli
T2 construct: Relaxant responses mediated via P2Y receptors were examined in guinea pig taenia coli; from tissue; host or cells: guinea pig taenia coli (carbachol-contracted)
In short: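 Guinea pig taenia coli precontracted with 50 nM carbachol; relaxation to applied P2Y agonists expressed as percentage relaxation against negative log molar agonist concentration.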

[4] = target: T3, P2X receptor (vas deferens) (Cavia porcellus, UniProt A0A286XVA9); test: Contraction of guinea pig isolated vas deferens
T3 sequence (A0A286XVA9 1-399): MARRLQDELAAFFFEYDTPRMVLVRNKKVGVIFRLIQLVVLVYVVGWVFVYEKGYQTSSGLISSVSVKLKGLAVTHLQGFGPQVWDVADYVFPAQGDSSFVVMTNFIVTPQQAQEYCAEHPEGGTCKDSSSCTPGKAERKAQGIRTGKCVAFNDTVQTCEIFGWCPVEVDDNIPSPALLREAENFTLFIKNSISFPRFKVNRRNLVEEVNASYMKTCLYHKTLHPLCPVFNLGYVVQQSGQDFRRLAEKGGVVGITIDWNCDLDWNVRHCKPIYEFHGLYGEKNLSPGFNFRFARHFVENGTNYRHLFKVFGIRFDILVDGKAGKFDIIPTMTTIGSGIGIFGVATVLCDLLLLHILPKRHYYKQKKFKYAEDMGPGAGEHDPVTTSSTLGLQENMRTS

P2Y receptors = test: Overall activity in P2Y receptor systems
In short: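 Phospholipase C: [3H]inositol-labeled turkey erythrocyte ghosts were incubated with nucleotide analogs plus 1 μM GTPγS, pH 7.0, 5 min at 30° C; [3H]inositol phosphates were quantified after anion exchange, and K0.5 was averaged from 3-8 dose-response curves. P2Y relaxation was tested in guinea pig taenia coli and rabbit aorta and mesenteric artery; P2X contraction in guinea pig bladder and vas deferens and rabbit saphenous artery.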

[5] = listed as 2-(6-cyanohexyl)thio ATP
[6] = listed as 2-(6-cyanohexylthio)-ATP

T2 sequence (P59902 whole entry): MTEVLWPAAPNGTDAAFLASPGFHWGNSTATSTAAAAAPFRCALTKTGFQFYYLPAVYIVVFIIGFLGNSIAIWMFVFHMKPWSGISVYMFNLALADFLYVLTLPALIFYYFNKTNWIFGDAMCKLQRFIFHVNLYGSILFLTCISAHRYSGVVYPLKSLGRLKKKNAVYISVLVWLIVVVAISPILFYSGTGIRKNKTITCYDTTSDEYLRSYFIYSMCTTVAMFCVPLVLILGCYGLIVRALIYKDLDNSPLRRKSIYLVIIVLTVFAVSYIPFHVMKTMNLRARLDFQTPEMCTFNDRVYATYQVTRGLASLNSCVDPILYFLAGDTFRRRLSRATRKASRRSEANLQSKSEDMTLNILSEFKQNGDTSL

SMILES: N#CCCCCCCSc1nc(N)c2ncn([C@@H]3O[C@H](COP(=O)(O)OP(=O)(O)OP(=O)(O)O)[C@@H](O)[C@H]3O)c2n1 [2-(6-Cyanohexylthio)-ATP, 2-(6-Cyanohexylthio)adenosine-5'-triphosphate]
- activity/potency in words, bladder [1]: it produced tonic contractions rather than the phasic; also recorded: much less potent than ATP under the same conditions
- times more potent than ATP, bladder ([1]; guinea pig urinary bladder P2X receptors): approximately 100 times
- activity/potency in words, bladder [1, 5]: produced tonic contractions rather than the typical phasic contractions of ATP
- activity/potency in words, bladder ([1]; listed as 2-(6-cyanohexyl)thio-ATP): produced contractions that were less tonic, and with a lower potency than ATP under the same conditions
- activity/potency in words, bladder [1, 6]: potent agonists in the vas deferens and urinary bladder
- overall activity in words, all preparations (P2X and P2Y receptors): more potent than ATP in all systems except the P2X system of the saphenous artery
- relaxation pD2, aorta [2]: 6.9
- EC50 [3]: 1.58 nM
- activity/potency in words, vas deferens [4]: potent agonists in the vas deferens and urinary bladder
- overall activity in words, P2Y systems (P2Y receptors; [5]): by far the most potent agonist in several P2Y receptor preparations
- overall activity in words, P2Y systems (P2Y receptors; [6]): the most potent compound in all of the P2Y receptor assays; also recorded: nanomolar potency

SMILES: C=CCCCCSc1nc(NC)c2ncn([C@@H]3O[C@H](COP(=O)(O)OP(=O)(O)OP(=O)(O)O)[C@@H](O)[C@H]3O)c2n1 [N^6 -Me-2-(5-hexenyl)-thio-ATP, N^6 -Me-2-(5-hexenylthio)adenosine 5'-triphosphate]
- relaxation pD2, aorta [2]: 5.6
- relaxation pD2, taenia coli ([3]; guinea pig taenia coli, log molar units): 7.2
